Like-named read-outs stand apart in the source and are kept apart here.
Key:
[1] = system: xxLAI strain of HIV-1; assay: microbe, parasite or virus in culture; format: cell-based; conditions: for Fold difference in EC50, 0.1 μM MPA: control vs with 0.1 μM MPA; for Fold difference in EC50, 0.25 μM MPA: control vs with 0.25 μM MPA (fold decrease); for Fold difference in EC50, 1 μM RBV: control vs with 1 μM RBV; for Fold difference in EC50, 5 μM RBV: control vs with 5 μM RBV; for Fold difference in EC50, 10 μM RBV: control vs with 10 μM RBV; for Fold difference in EC50, 20 μM RBV: control vs with 20 μM RBV (fold decrease)
Experimental: (§1) Triplicate samples of compound were tested. MT2 cells were infected with xxLAI at a multiplicity of infection (MOI) of 0.03 for 3 hours at 37° C. in 5% CO2. The infected cells were plated at 3.0×10^4/well into a 96 well plated containing drug dilutions and incubated for 5 days at 37° C. in CO2. […] This method has been modified into a susceptibility assay and has been used in a variety of in vitro antiviral tests and is readily adaptable to any system with a lytic virus (Weislow, O. S., et. al. 1989). Using the absorption values of the cell controls as 100% protection and no drug, virus infected cells as 0% protection, a dose response curve is generated by plotting % protection on the Y axis and drug concentration on the X axis. From this curve EC50 values were determined.
(§2) Assays were performed in the MT2 cell line as described above in the XXT sensitivity assay section.
MPA was tested for activity against the xxLAI strain of HIV-1 in the laboratory adapted cell line MT2. Dilutions of MPA were made in cell culture media in a 96 well plate; the highest concentration tested was 1 μM. Triplicate samples of compound were tested. MT2 cells were infected with xxLAI at a multiplicity of infection (MOI) of 0.03 for 3 hours at 37° C. in 5% CO2. The infected cells were plated at 3.0×10^4/well into a 96 well plated containing drug dilutions and incubated for 5 days at 37° C. in CO2. The antiviral activity of MPA was determined using the XTT assay described above. This method has been modified into a susceptibility assay and has been used in a variety of in vitro antiviral tests and is readily adaptable to any system with a lytic virus (Weislow, O. S., et. al. 1989). Using the absorption values of the cell controls as 100% protection and no drug, virus infected cells as 0% protection, a dose response curve is generated by plotting % protection on the Y axis and drug concentration on the X axis. From this curve EC50 values were determined.
(§3) The concentrations of MPA used were 1, 0.5, 0.25, 0.1, and 0.01 μM. Assays were performed in the MT2 cell line as described in section 3.1.

[2] = system: recombinant virus A98S, F116Y, Q151M, T215Y; assay: MT2/XTT combination assay, recombinant resistant virus; format: cell-based, HIV-1; conditions: for fold difference from WT: A98S; for EC50: Human immunodeficiency virus 1, A98S
Experimental: as §1, §2
(§4) The restraint strains analyzed included viruses created by site directed mutagenesis, K65R and L74V, as well as a recombinant virus containing mutations at positions 98S, 116Y, 151M and 215Y. The wild type backbone in which these mutants were created, xxLAI, was also analyzed for comparison. The concentrations of DAPD and DXG tested were as described in the above MT2/XTT combination assay section.
as §3
as §4, with “section 4.1. MPA was tested in” for “the above MT2/XTT”, “with DAPD and DXG at a fixed concentration of 0.25 μM.” for “assay section.”

[3] = system: HIV-1 mutant L74V; assay: MT2/XTT combination assay, resistant virus L74V; format: cell-based; conditions: for EC50: Human immunodeficiency virus 1, L74V; for fold difference from WT: L74V
Experimental: as §1, §2, §4, §3
as §4, with “section 4.1. MPA was tested in” for “the above MT2/XTT”, “with DAPD and DXG at a fixed concentration of 0.25 μM.” for “assay section.”

[4] = Human immunodeficiency virus 1, MT2, read-out: Mean EC50, Control, MT2 cells, no MPA
[5] = Human immunodeficiency virus 1, MT2, read-out: Mean EC50, Control, MT2 cells, no RBV
[6] = read-out: Mean EC50, 0.01 μM MPA, MT2 cells, with 0.01 μM MPA
[7] = read-out: Mean EC50, 0.1 μM MPA, MT2 cells, with 0.1 μM MPA
[8] = read-out: Mean EC50, 0.25 μM MPA, MT2 cells, with 0.25 μM MPA
[9] = read-out: Mean EC50, 1 μM RBV, MT2 cells, with 1 μM RBV
[10] = read-out: Mean EC50, 5 μM RBV, MT2 cells, with 5 μM RBV
[11] = read-out: Mean EC50, 10 μM RBV, MT2 cells, with 10 μM RBV
[12] = read-out: Mean EC50, 20 μM RBV, MT2 cells, with 20 μM RBV

Structure (SMILES)	EC50 [1, 4]	EC50 [1, 5]	Fold difference in EC50, 0.1 μM MPA ([1]; MT2 cells)	Fold difference in EC50, 0.25 μM MPA ([1]; MT2 cells)	Fold difference in EC50, 1 μM RBV ([1]; MT2 cells)	Fold difference in EC50, 5 μM RBV ([1]; MT2 cells)	Fold difference in EC50, 10 μM RBV ([1]; MT2 cells)	Fold difference in EC50, 20 μM RBV ([1]; MT2 cells)	EC50 [1, 6]	EC50 [1, 7]	EC50 [1, 8]	EC50 [1, 9]	EC50 [1, 10]	EC50 [1, 11]	EC50 [1, 12]	fold difference from WT ([2]; compound alone (Table 4))	fold difference from WT ([2]; compound alone (Table 10))	EC50 ([2]; compound alone (Table 4))	EC50 ([2]; compound alone (Table 10))	EC50 ([3]; compound alone (Table 4))	other results
Nc1nc(N)c2ncn(C3COC(CO)O3)c2n1 (single isomer, unassigned; (-)) [DAPD]	20000 nM	18500 nM	4.1 fold	16.7 fold	2.25 fold	6.4 fold	11.56 fold	14.2 fold	22000 nM	4900 nM	1200 nM	8200 nM	2900 nM	1600 nM	1300 nM	(>12) fold	6 fold	> 100000 nM	85000 nM	34000 nM	EC50 ([3]; compound alone (Table 10)): 39000 nM; fold difference from WT ([3]; compound alone (Table 4)): (4) fold; fold difference from WT ([3]; compound alone (Table 10)): 4.9 fold
Nc1nc2c(ncn2C2COC(CO)O2)c(=O)[nH]1 (single isomer, unassigned; (-)) [DXG]	2100 nM	2650 nM	3.5 fold	10.5 fold	1.29 fold	4.57 fold	5.3 fold	12 fold	2500 nM	600 nM	200 nM	2050 nM	580 nM	500 nM	220 nM	20 fold	8.4 fold	16000 nM	16000 nM	4500 nM	EC50 ([3]; compound alone (Table 10)): 3800 nM; fold difference from WT ([3]; compound alone (Table 4)): 5.6 fold; fold difference from WT ([3]; compound alone (Table 10)): 4.2 fold

Source: patent US20020173491A1, “DAPD combination therapy with inosine monophosphate dehydrogenase inhibitor” (priority 2000, published 2002)
